Values quoted from earlier work, collected in patent US7390505B2, “Nanoparticulate topiramate formulations” (Elan Pharma International, Ltd., priority 2003, dated 2008).

Key:
[1] = human, in vivo
[2] = not given; remark: listed apart in the source

solubility in organic solvents (acetone, chloroform, dimethylsulfoxide, and ethanol): freely soluble | solubility in alkaline solutions (solutions containing sodium hydroxide or sodium phosphate, pH of 9 to 10): most soluble | withdrawal due to depression ([2]; in vivo): 3% | withdrawal due to difficulty with memory ([2]; in vivo): 3% | withdrawal due to paraesthesia ([2]; in vivo): 5 % of patients
SMILES: CC1(C)O[C@@H]2[C@@H](CO[C@@]3(COS(N)(=O)=O)OC(C)(C)O[C@@H]23)O1 [Topiramate, 2,3:4,5-Di-O-isopropylidene-β-D-fructopyranose sulfamate]
incidence of ataxia, impaired concentration, confusion, dizziness, fatigue, paraesthesia, somnolence and abnormal thinking [1]: ≥ 5 % of patients | patients who withdrew because of side effects ([2]; 96 mg/d or 192 mg/d): 19%
